Series [1] relates to sodium:potassium ratio of the urine. The series can be described thus: saluretic / DOCA-antagonizing effect, method of Kagawa (sodium:potassium ratio of the urine). Type of series: in vivo, rats. The following applies: for potassium-retentive diuretic effect: in words. From the text:
This means that these compounds promote the excretion of sodium ions to a far greater extent than that of potassium ions, thus the sodium:potassium ratio measured in the urine is favourably high. The saluretic effect was examined on rats according to the method of Kagawa (J. Pharm. Exp. Ther. 126, 123 /1959/). The sodium:potassium ratio of the urine was decreased experimentally by introducing deoxycorticosterone acetate (DOCA) into the animals, and the DOCA-antagonizing effects of the compounds were measured. The effects of the two new compounds examined in this test were essentially the same as that of Spironolactone, utilized as reference substance.

Series [2] in a line: antiphlogistic effect (test not specified). The note with it: in vivo.
In series [3] the test system is longitudinal smooth muscle of guinea pig ileum. The series can be described thus: spontaneous activity of the longitudinal smooth muscle of guinea pig ileum in vitro.
The subject of series [4] is isolated rat uterine horn. The series can be described thus: spontaneous activity of isolated rat uterine horn in vitro.
For series [5], the system named is carrageenin-induced plantar oedema. The series can be described thus: carrageenin-induced plantar oedema test. The following applies: Rattus norvegicus, read-out: ED50 value, carrageenin-induced plantar oedema test. It is filed as in vivo, rats.
Series [6] concerns histamine receptors. The series can be described thus: blocking of histamine receptors. The source says: (§1) 1,3-Bis(2',6'-dimethylphenyl)-2-imino-4-methyl-imidazoline fumarate is far more advantageous than Indomethacine also with regard to its toxicological properties. […] Based on the above, the new compound according to the invention can be applied in the treatment of inflammatory disorders with a far greater degree of safety than Indomethacine.

For series [7] the following is noted: in vivo.
Text: as §1

Series [8] concerns cotton granuloma. The series can be described thus: cotton granuloma test. The note with it: in vivo.
The test system of series [9] is adjuvant arthritis. The series can be described thus: adjuvant arthritis test. The note with it: in vivo.
Series [10] concerns prostaglandine synthetase enzyme. The series can be described thus: inhibition of prostaglandine synthetase enzyme. Type of series: biochemical.
Text: as §1

For series [11], the system named is gastric acid secretion. The series can be described thus: gastric acid secretion. The following applies: in vivo.
Text: as §1

Series [12] can be described thus: LD50 determined on rats after oral administration. The note with it: rat, in vivo.
Text: as §1

The test system of series [13] is serotonine receptors. The series can be described thus: blocking of serotonine receptors.
Text: as §1

Series [14] deals with urine excretion. The series can be described thus: Lipschitz test, urine excretion of rats. The following applies: for Urine: 5 hr, control 5.82. Type of series: in vivo. The source says:
Some of the compounds according to the invention also exert favourable diuretic effects.

[15] abbreviates: second experiment, 480 μg/animal p.o. with hormone substitution (DOCA) 12.5 μg/animal s.c.
[16] abbreviates: first experiment, 480 μg/animal p.o. with hormone substitution (DOCA) 12.5 μg/animal s.c.

Where two headings read alike, the source gives them in different places.

With `COc1ccc(COC(=O)N=C2N(c3c(C)cccc3C)CC(C)N2c2c(C)cccc2C)cc1` (centres unmarked) [1,3-Bis(2',6'-dimethylphenyl)-2-(p-methoxy-benzyloxycarbonyl)-imino-4-methyl-imidazolidine], the potassium-retentive diuretic effect result in series [1] is “strong potassium-retentive diuretic effect”.

On to `CCOC(=O)N=C1N(c2c(C)cccc2C)CC(C)N1c1c(C)cccc1C` (centres unmarked) [1,3-Bis(2',6'-dimethylphenyl)-2-carbethoxyimino-4-methyl-imidazolidine], for which the “Effects*” value in series [1] (setting [15]) amounted to 1.19.

Consider `Cc1cccc(C)c1N1C(=N)N(c2c(C)cccc2C)[C@@H](C)[C@H]1C` [1,3-Bis(2',6'-dimethylphenyl)-2-imino-4,5-cis-dimethylimidazolidine], for which the potassium-retentive diuretic effect entry in series [1] is listed as “also exert potassium-retentive diuretic effect, they are, however, less effective than the compounds listed in Table 2”.

With `Cc1cccc(C)c1N1CC(CC(N)=O)N(c2c(C)cccc2C)C1=N` (centres unmarked) [1,3-Bis(2',6'-dimethylphenyl)-2-imino-4-carboxamidomethyl-imidazolidine], the antiphlogistic effects entry in series [2] is “significant antiphthlogistic effects”.

For `Cc1cccc(C)c1N1CC(CCl)N(c2c(C)cccc2C)C1=N` (centres unmarked) [1,3-Bis(2',6'-dimethylphenyl)-2-imino-4-chloromethyl-imidazolidine], in series [2], the antiphlogistic effects entry is on record as “significant antiphthlogistic effects”.

`Cc1cccc(C)c1N1CC(C)N(c2c(C)cccc2C)C1=N` (centres unmarked) [1,3-Bis(2',6'-dimethylphenyl)-2-imino-4-methylimidazolidine]: in [3], the “spontaneous activity of the longitudinal smooth muscle of guinea pig ileum” value is on record as “increase the spontaneous activity”. The potassium-retentive diuretic effect entry in [1] is on record as “also exert potassium-retentive diuretic effect, they are, however, less effective than the compounds listed in Table 2”. The “spontaneous activity of isolated rat uterine horn” value in series [4] is listed as “increase the spontaneous activity”.

As to `Cc1cccc(C)c1N1CC(C(=O)O)N(c2c(C)cccc2C)C1=N` (centres unmarked) [1,3-Bis(2',6'-dimethylphenyl)-2-imino-imidazolidine-4-carboxylic acid], the antiphlogistic effects result in series [2] is on record as “significant antiphthlogistic effects”.

Regarding `CC1CN(c2ccc(Cl)cc2)C(=N)N1c1ccc(Cl)cc1` (centres unmarked) [1,3-Bis(4'-chlorophenyl)-2-imino-4-methyl-imidazolidine], the antiphlogistic effects result in series [2] is listed as “significant antiphthlogistic effects”.

Consider `Cc1cccc(C)c1N1CC(C)N(c2c(C)cccc2C)C1=N.O=C(O)/C=C/C(=O)O` (centres unmarked) [1,3-bis(2',6'-dimethylphenyl)-2-imino-4-methyl-imidazolidine fumarate], for which the ED50 in series [5] (rats, oral administration) came to 11 mg/kg. Further, in series [6], the “connection of the antiphlogistic effect with blocking of histamine receptors” value was “not connected with the blocking of serotonine or histamine receptors”. Further, the ulcerogeneous side effect entry in series [7] is reported as “far lower than that of Indomethacine”. Further, the “activity in the cotton granuloma test” value in [8] is recorded as “considerable activity”. Also, the “activity in the adjuvant arthritis test” value in series [9] is “considerable activity”. For the same compound, the “inhibition of prostaglandine synthetase enzyme” value in series [10] was “does not inhibit the function of prostaglandine synthetase enzyme”. In addition, the gastric acid secretion entry in series [11] is “decreases gastric acid secretion to a medium degree”. The compound also came in with an LD50 in series [12] of 150 mg/kg. In addition, in series [13], the “connection of the antiphlogistic effect with blocking of serotonine receptors” value is recorded as “not connected with the blocking of serotonine or histamine receptors”.

Turning to `CCOC(=O)NC(=S)N=C1N(c2c(C)cccc2C)CC(C)N1c1c(C)cccc1C` (centres unmarked) [1-(1',3'-Bis/2",6"-dimethylphenyl/-4'-methyl-imidazolidine-2'-ylidene)-3-carbethoxy-thiourea], in [14] (25 mg/kg p.o.), the Urine stood at 11.16 ml/kgx5 hr. Besides, the “diuretic effect / increase of urine excretion” value in [14] (rats, compared with urea) is “increases the urine excretion of rats to the same degree as urea”. In addition, in series [1] (setting [16]), the “Effects*” value was found to be 1.02.

For the compound `Cc1cccc(N2CC(C)N(c3ccc(Cl)cc3)C2=N)c1C` (centres unmarked) [1-(2',3'-Dimethylphenyl)-2-imino-3-(4'-chlorophenyl)-4-methyl-imidazolidine], in series [1], the potassium-retentive diuretic effect result is “also exert potassium-retentive diuretic effect, they are, however, less effective than the compounds listed in Table 2”.

Regarding `Cc1cccc(C)c1N1C(=N)N(c2ccc(Cl)cc2)CC1C` (centres unmarked) [1-(4'-Chlorophenyl)-2-imino-3-(2',6'-dimethylphenyl)-4-methyl-imidazolidine], the antiphlogistic effects result in [2] is recorded as “significant antiphthlogistic effects”.

Take `CC(=O)OCC(=O)[C@H]1CC[C@H]2[C@@H]3CCC4=CC(=O)CC[C@]4(C)[C@H]3CC[C@]12C` [DOCA, deoxycorticosterone acetate, reference compound]: the “Effects*” value in series [1] (first experiment, DOCA alone, 12.5 μg/animal s.c.) came out at 0.75; in [1] (second experiment, DOCA alone, 12.5 μg/animal s.c.), 0.88.

For the compound `COc1ccc2c(c1)c(CC(=O)O)c(C)n2C(=O)c1ccc(Cl)cc1` [Indomethacine, reference compound], in series [5] (po), the ED50 came to 20 mg/kg. Besides, the LD50 in [12] turned out to be 20 mg/kg.

On to `COC(=O)C1CN(c2c(C)cccc2C)C(=N)N1c1c(C)cccc1C` (centres unmarked) [Methyl 1,3-bis(2',6'-dimethylphenyl)-2-imino-imidazolidine-4-carboxylate], for which the potassium-retentive diuretic effect result in series [1] was “also exert potassium-retentive diuretic effect, they are, however, less effective than the compounds listed in Table 2”.

Take `CC(=O)S[C@@H]1CC2=CC(=O)CC[C@]2(C)[C@H]2CC[C@@]3(C)[C@@H](CC[C@@]34CCC(=O)O4)[C@H]12` [Spironolactone, reference compound]: the “Effects*” value in [1] (setting [16]) amounted to 1.17; in series [1] (setting [15]) it was 1.19.

With `NC(N)=O` [Urea, reference compound], in series [14] (960 mg/kg p.o.), the Urine stood at 11.54 ml/kgx5 hr.

For orientation: ED50 means the dose that gives a 50% effect, or the effect in half of the subjects. By LD50 is commonly meant the dose expected to kill half of the subjects tested. Low readings indicate a more toxic substance, high ones a less toxic substance.

The values are drawn from US4369325A, “1,3-Diaryl-2-imino-imidazolidines and compounds” (EGYT Gyogyszervegyeszeti Gyar, priority 1978, dated 1983).
